From publication PMC11354720, “Assessing the Efficacy of Protease Inactivation for the Preservation of Bioactive Amphibian Skin Peptides” (International Journal of Molecular Sciences, 2024) come the findings set out here.

This data set deals with proteases in Pelophylax esculentus skin secretion. It counts as in vitro ADME. To be noted: LC-HRMS; for Proteoforms, %: sum of all proteolytic forms; for Intact, %: one frog per sample. Here is the method:
The inhibitory capacity of methanol and hydrochloric and formic acids, as well as PMSF at the minimum and maximum concentrations traditionally used in proteomics (0.1–1.0 mM), was compared via mass spectrometric monitoring of intact and proteolytic forms of nine peptides in five samples of Pelophylax esculentus secretions (samples 1–5).
Table 2 presents quantitative data for each of the nine peptides in Table 1, showing the percentage ratio of the intact (original) form of the peptide, the oxidized form (in the presence of methionine in the sequence), and the resulting proteolytic forms: products of the action of the remaining non-deactivated proteases. The full list of the detected proteolytic forms is included into the supporting material. The presence of one or another proteolytic form for each peptide in each of the five samples was determined by observing the coincidence of their exact experimental mass with the calculated one (within 0.5 ppm according to the mass spectra), as well as the coincidence of their sequences (tandem mass spectra data).
When calculating the data in Table 2, the total amount of intensities of all its formed forms in the mass spectra was taken as 100% for each peptide. To calculate the content in each of the samples of the intact, oxidized (if any), or proteolytic form of each of the nine peptides, the sum of the intensities of the chromatographic peaks of its multicharged ions, exactly corresponding to the values of the polyprotonated molecules of each of the forms, was used. The line “Proteoforms, %” took into account the sum of all proteolytic forms of a particular peptide for each of the five samples. The values of the intensities of each of the forms (intact, oxidized, and proteolytic) obtained in this way were summed up and, in relation to their resulting sum, the percentage content of each of the three forms in Table 2 was calculated for each of the five samples with different reagents.
The skin secretions of five sexually mature female specimens of the same size of Pelophylax esculentus, caught within the Moscow city limits, were obtained via mild electro-stimulation of the skin glands using a laboratory electro-stimulator [15, 51]. The “milking” parameters were as follows: signal frequency 50 Hz, pulse duration 3 ms, voltage 12 V, total stimulation time 40 s. The secretion was washed off with deionized water into separate containers, to which the following reagents were immediately added individually: —HCl to final concentration 1% (sample 1); —CH3OH (sample 2); —HCOOH to final concentration 1% (sample 3); —0.1 mM PMSF (sample 4 in DMSO); —1.0 mM PMSF (sample 5 in DMSO). All samples were centrifuged for 15 min at 3 000 rpm, filtered through removable membrane filters (PTFE 0.45 μm), and lyophilized. The storage temperature was −26 °C. All five individuals were immediately returned to their place of capture after the procedure.
Mass spectra were obtained on an Orbitrap ID-X high-resolution mass spectrometer (Thermo Scientific, Waltham, MA, USA) coupled to an LC-30 Nexera liquid chromatograph (Shimadzu, Kyoto, Japan) in LC-HRMS mode. An HPLC system consisted of two LC-30AD chromatographic pumps, a DGU-5A vacuum degasser, a SIL-30AC autosampler, an STO-20A column thermostat, and a CBM-20A system controller. The components of the secretions were separated on an XDB-C18 column (Agilent, Santa Clara, CA, USA) with a length of 100 mm and phase particle size of 1.8 μm. Gradient chromatography was performed using the following solutions: A—0.1% formic acid solution in deionized water (Milli-Q, Millipore, Molsheim, France); B—0.1% formic acid solution in acetonitrile containing 2% deionized water. All lyophilized samples were dissolved in phase B prior to the analysis. Injection volume was set to 0.1 µL. […]

Like-named read-outs stand apart in the source and are kept apart here. Where a SMILES comes first, the peptide text is derived from it. Bridges are numbered along the chain shown (N, C = ends).

As for `CC[C@H](C)[C@H](NC(=O)[C@H](CC(N)=O)NC(=O)[C@@H](NC(=O)[C@H](C)N)C(C)C)C(=O)N1CCC[C@H]1C(=O)N[C@@H](Cc1ccccc1)C(=O)N[C@@H](CCCCN)C(=O)N[C@H](C(=O)N[C@@H](CCCCN)C(=O)N[C@@H](Cc1ccccc1)C(=O)N[C@@H](CCCNC(=N)N)C(=O)N[C@H]1CSSC[C@@H](C(=O)O)NC(=O)[C@H](Cc2ccccc2)NC(=O)[C@H](C)NC(=O)[C@H](C)NC(=O)[C@H](CCCCN)NC1=O)C(C)C` [Ranat 2R, Ranatuerin 2R] (H-AVNIPFKVKFRCKAAFC-OH; disulfide 12-17), the “Proteoforms, %” value by setting is: (sample 1: HCl final concentration 1%, all forms = 100%) 14.79%; (sample 2: CH3OH, all forms = 100%) “proteolytic fragments were not recorded”; (sample 3: HCOOH final concentration 1%, all forms = 100%) 34.99%; (sample 4: PMSF 0.1 mM (in DMSO), all forms = 100%) “proteolytic fragments were not recorded”; (sample 5: PMSF 1.0 mM (in DMSO), all forms = 100%) “proteolytic fragments were not recorded”. The “Intact, %” value was determined as 85.21% (sample 1: aqueous P. esculentus skin secretion, HCl added to final concentration 1%, sum of intensities of all forms of the peptide = 100%); 100% (sample 2: aqueous P. esculentus skin secretion with CH3OH added, all forms = 100%); 65.01% (sample 3: aqueous P. esculentus skin secretion, HCOOH added to final concentration 1%, all forms = 100%); 100% (sample 5: aqueous P. esculentus skin secretion, PMSF 1.0 mM (in DMSO), all forms = 100%).
